Results on 6 molecules are retold here after patent publication US10669235B2, “Indole derivatives and their use as protein kinase inhibitors” (RESPIVERT LIMITED, priority 2016, dated 2020).

Structures can show the parent of a compound that is named as a salt. Where two headings read alike, the source gives them in different places.

Series [1] deals with T1, PDGFRβ (Homo sapiens (Human), UniProt P09619). As to the kind of experiment: PDGFRβ enzyme inhibition (ADP-Glo assay). In kind it is biochemical. Particulars: mean, n = 2 (nintedanib n = 34). (ADP-Glo first removes unused ATP, then detects ADP through luciferase.)
T1 sequence (P09619 33-1106): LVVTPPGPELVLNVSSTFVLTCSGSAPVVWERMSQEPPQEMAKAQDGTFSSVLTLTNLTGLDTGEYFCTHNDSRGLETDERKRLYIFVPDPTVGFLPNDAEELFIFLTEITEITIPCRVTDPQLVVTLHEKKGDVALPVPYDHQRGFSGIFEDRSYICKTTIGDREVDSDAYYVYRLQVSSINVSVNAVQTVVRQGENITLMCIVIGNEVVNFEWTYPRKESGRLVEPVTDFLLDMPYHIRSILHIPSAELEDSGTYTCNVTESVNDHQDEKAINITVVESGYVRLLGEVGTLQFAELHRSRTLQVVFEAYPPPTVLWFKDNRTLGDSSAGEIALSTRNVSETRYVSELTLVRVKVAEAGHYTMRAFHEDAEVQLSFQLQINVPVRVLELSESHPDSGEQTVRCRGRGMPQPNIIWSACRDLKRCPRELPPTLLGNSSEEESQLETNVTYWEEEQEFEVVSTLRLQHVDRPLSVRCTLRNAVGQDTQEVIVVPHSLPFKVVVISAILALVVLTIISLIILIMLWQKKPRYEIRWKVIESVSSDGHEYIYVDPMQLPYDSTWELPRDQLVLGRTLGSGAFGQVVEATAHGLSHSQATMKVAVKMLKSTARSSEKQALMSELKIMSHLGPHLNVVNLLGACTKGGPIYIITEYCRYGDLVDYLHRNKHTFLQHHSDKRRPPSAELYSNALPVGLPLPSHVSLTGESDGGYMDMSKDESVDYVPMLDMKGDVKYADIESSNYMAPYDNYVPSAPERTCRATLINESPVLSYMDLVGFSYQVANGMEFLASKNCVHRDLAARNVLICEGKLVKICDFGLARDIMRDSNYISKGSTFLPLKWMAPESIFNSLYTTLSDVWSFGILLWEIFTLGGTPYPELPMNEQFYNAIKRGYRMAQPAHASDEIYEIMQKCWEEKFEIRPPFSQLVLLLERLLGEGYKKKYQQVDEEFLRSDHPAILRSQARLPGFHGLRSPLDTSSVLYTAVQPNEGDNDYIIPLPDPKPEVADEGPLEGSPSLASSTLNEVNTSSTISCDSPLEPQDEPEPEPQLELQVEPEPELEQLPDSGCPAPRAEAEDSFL
The test system of another series is MRC5 cells. As to the kind of experiment: Cell viability assay in MRC5 cells (MTT).
Series [2] is described as follows: Pharmacokinetic measurements in rats (i.v., i.t., oral). Type of series: in vivo. As to conditions: rat; for concentration at 0.1 h / concentration at 1.5 h / concentration at 6 h / concentration at 24 h: lung; for concentration at 0.1 h: read-out: lung concentration (nM) at time 0.1 h; for concentration at 1.5 h: read-out: lung concentration (nM) at time 1.5 h; for concentration at 6 h: read-out: lung concentration (nM) at time 6 h; for concentration at 24 h: read-out: lung concentration (nM) at time 24 h.

For series [3], the target named is T1, PDGFRβ. The series is described as follows: PDGF-BB induced phosphorylation of PDGFRβ in fibroblasts (MRC5, HTRF). In kind it is cell-based. For orientation: Time-resolved FRET reads energy transfer from a long-lived donor to a nearby acceptor.
The next series can be described thus: PAMPA permeability assay. In kind it is in vitro ADME. As to conditions: for Papp at 5 h, 10 µM: pH 7, 10 μM.
Setting [4] is: male, CD, other: intra-tracheal.
Setting [5] is: i.t. dose 0.1 (nintedanib 0.42).
Setting [6] is: i.t. dose 0.1 (nintedanib 0.42), 0.1 h.
[7] abbreviates: i.t. dose 0.1 (nintedanib 0.42), 1.5 h.
[8] abbreviates: i.t. dose 0.1 (nintedanib 0.42), 6 h.
The mark [9] stands for this setting: i.t. dose 0.1 (nintedanib 0.42), 24 h.
Where [10] appears, read: i.v. dose 0.1 (nintedanib 0.42), 0.1 h.
The mark [11] stands for this setting: i.v. dose 0.1 (nintedanib 0.42), 1.5 h.
Setting [12] is: i.v. dose 0.1 (nintedanib 0.42), 6 h.
Setting [13] is: i.v. dose 0.1 (nintedanib 0.42), 24 h.
Setting [14] is: MRC5 cells, PDGFBB stimulation, read-out: PDGFBB-induced PDGFRβ phosphorylation in MRC5 cells (IC50).

Turning to `COC(=O)c1cc2c(cc1C)/C(=C(/Nc1ccc(C(=O)NCCN3CCNC(=O)C3)cc1)c1ccccc1)C(=O)N2` [Example 9, (Z)-Methyl 5-methyl-2-oxo-3-(((4-((2-(3-oxopiperazin-1-yl)ethyl)carbamoyl)phenyl)amino) (phenyl)methylene)indoline-6-carboxylate], the inhibition constant (Ki) on PDGFRβ [1] came out at 7.89 nM. In the series on MRC5 cells, the “Cell viability at 100 nM (%)” value stood at 102%, the “Cell viability at 300 nM (%)” value was determined as 103.6% and the “Cell viability at 1000 nM (%)” value was 97.5%. Besides, in series [2] (male, CD, iv), the concentration at 0.1 h is 494 nM, the concentration at 1.5 h was 174 nM, the concentration at 6 h is 235 nM and the concentration at 24 h is 502 nM. Moreover, in series [2] (setting [4]), the concentration at 0.1 h amounted to 5700 nM, the concentration at 1.5 h was 8810 nM, the concentration at 6 h amounted to 10500 nM and the concentration at 24 h was 10500 nM. Also, in series [2] (male, CD, lung/plasma, iv, read-out: lung/plasma ratio at time 0.1 h), the Kp at 0.1 h was found to be 17. Besides, the Kp at 1.5 h in series [2] (male, CD, lung/plasma, iv, read-out: lung/plasma ratio at time 1.5 h) came out at 55. In addition, the Kp at 6 h in series [2] (male, CD, lung/plasma, iv, read-out: lung/plasma ratio at time 6 h) is > 326. In addition, the Kp at 24 h in series [2] (male, CD, lung/plasma, iv, read-out: lung/plasma ratio at time 24 h) was > 697. The Kp at 0.1 h in series [2] (male, CD, lung/plasma, other: intra-tracheal, read-out: lung/plasma conc ratio at time 0.1 h) is > 7890. In series [2] (male, CD, plasma, iv), this molecule had an MRT of 1.1 h, a clearance of 5.4 L/h/kg and a half-life of 1.1 h. The Vd in series [2] (male, CD, plasma, iv, read-out: Vss) is 7 L/kg. For the same molecule, in series [2] (0.1 h), the “Lung conc i.t./i.v. Ratio at time 0.1 h” value is 12. For the same molecule, in series [2] (1.5 h), the “Lung conc i.t./i.v. Ratio at time 1.5 h” value amounted to 51. In series [2] (6 h), the “Lung conc i.t./i.v. Ratio at time 6 h” value amounted to 45. Also, the “Lung conc i.t./i.v. Ratio at time 24 h” value in series [2] (24 h) came to 21. In addition, the “i.t. BAV (%)” value in series [2] (setting [5]) is reported as <40%. Also, the “BAL % administered dose at time 0.1 h” value in series [2] (setting [6]) worked out at 13.7%. In addition, in series [2] (setting [7]), the “BAL % administered dose at time 1.5 h” value was 5.2% and the “lung/plasma conc ratio at time 1.5 h” value is listed as >12197. Also, in series [2] (setting [8]), the “BAL % administered dose at time 6 h” value stood at 2.3% and the “lung/plasma conc ratio at time 6 h” value is on record as >14485. For the same molecule, in series [2] (setting [9]), the “BAL % administered dose at time 24 h” value amounted to 0.5% and the “lung/plasma conc ratio at time 24 h” value is listed as >14483. Besides, the “BAL % administered dose at time 0.1 h” value in series [2] (setting [10]) was “BQL”. In addition, the “BAL % administered dose at time 1.5 h” value in series [2] (setting [11]) is “BQL”. In series [2] (setting [12]), the “BAL % administered dose at time 6 h” value is “BQL”. In series [2] (setting [13]), the “BAL % administered dose at time 24 h” value is given as “BQL”. The “Oral BAV (%)” value in series [2] (oral dose 3 mg/kg) is <2%. The IC50 at PDGFRβ [3] (setting [14]) came out at 14.2 nM. Further, in “PAMPA permeability assay” (pH 7, PAMPA), the recovery at 5 hr, 10 μM is 72.7% and the Papp at 5 h, 10 µM is 0.146 nm/s.

`COC(=O)c1cc2c(cc1C)/C(=C(/Nc1ccc(C(=O)NC3CCN(C)CC3)cc1)c1ccccc1)C(=O)N2` [Example 18, (Z)-Methyl-5-methyl-3-(((4-((1-methylpiperidin-4-yl)carbamoyl)phenyl)amino)(phenyl)methylene)-2-oxoindoline-6-carboxylate, formate]: the affinity on PDGFRβ [1] corresponds to a Ki of 7.99 nM. Also, in the series on MRC5 cells, the “Cell viability at 100 nM (%)” value is reported as 98.2%, the “Cell viability at 300 nM (%)” value was determined as 97.3% and the “Cell viability at 1000 nM (%)” value came out at 91.8%. In series [2] (male, CD, iv), the concentration at 0.1 h came out at 638 nM, the concentration at 1.5 h was 306 nM and the concentration at 6 h is 201 nM. For the same molecule, in series [2] (setting [4]), the concentration at 0.1 h came out at 6530 nM, the concentration at 1.5 h is 5990 nM, the concentration at 6 h is 2350 nM and the concentration at 24 h was determined as 4520 nM. The same molecule showed a half-life in series [2] (male, CD, plasma, iv) of 5.1 h. For the same molecule, the “i.t. BAV (%)” value in series [2] (setting [5]) is 39%. The “BAL % administered dose at time 0.1 h” value in series [2] (setting [6]) came out at 6.7%. Besides, the “BAL % administered dose at time 1.5 h” value in series [2] (setting [7]) worked out at 2.2%. Further, the “BAL % administered dose at time 6 h” value in series [2] (setting [8]) is reported as 0.4%. Moreover, the “BAL % administered dose at time 24 h” value in series [2] (setting [9]) is recorded as 0.3%. Besides, in series [2] (setting [10]), the “BAL % administered dose at time 0.1 h” value is listed as 0.13%. Moreover, the “BAL % administered dose at time 1.5 h” value in series [2] (setting [11]) turned out to be 0%. Moreover, the “BAL % administered dose at time 6 h” value in series [2] (setting [12]) is recorded as “BQL”. For the same molecule, the “BAL % administered dose at time 24 h” value in series [2] (setting [13]) is “BQL”. This molecule registered an IC50 on PDGFRβ [3] of 16.8 nM. In the series “PAMPA permeability assay” (pH 7), the recovery at 5 hr, 10 μM was 84.5%. For the same molecule, the apparent permeability coefficient (Papp) at 5 h, 10 µM in “PAMPA permeability assay” is 0.0383 nm/s.

On PDGFRβ [1], `COC(=O)c1cc2c(cc1C)/C(=C(/Nc1ccc(C(=O)N3CCN(CCO)CC3)cc1)c1ccccc1)C(=O)N2` [Example 19, (Z)-Methyl 3-(((4-(4-(2-hydroxyethyl)piperazine-1-carbonyl)phenyl)amino)(phenyl)methylene)-5-methyl-2-oxoindoline-6-carboxylate, 0.5 formate] came in with a Ki of 8.79 nM. Moreover, in the series on MRC5 cells, the “Cell viability at 100 nM (%)” value was 85.5%, the “Cell viability at 300 nM (%)” value was 71.8% and the “Cell viability at 1000 nM (%)” value was found to be 21.9%. Moreover, the IC50 at PDGFRβ [3] (setting [14]) turned out to be 5.04 nM. In “PAMPA permeability assay” (pH 7, PAMPA), the recovery at 5 hr, 10 μM came to 61.8% and the Papp at 5 h, 10 µM worked out at 5.89 nm/s.

Turning to `COC(=O)c1cc2c(cc1C)/C(=C(/Nc1ccc(C(=O)NCC3(N(C)C)CCC3)cc1)c1ccccc1)C(=O)N2` [Example 40, (Z)-Methyl 3-(((4-(((1-(dimethylamino)cyclobutyl)methyl)carbamoyl)phenyl)amino)(phenyl)methylene)-5-methyl-2-oxoindoline-6-carboxylate, 0.3 formate], the inhibition constant (Ki) at PDGFRβ [1] was determined as 12.8 nM. In addition, in the series on MRC5 cells, the “Cell viability at 100 nM (%)” value came out at 95.4%, the “Cell viability at 300 nM (%)” value was 88% and the “Cell viability at 1000 nM (%)” value is recorded as 82.9%. Further, on PDGFRβ [3] (setting [14]), the IC50 amounted to 13.4 nM. In the series “PAMPA permeability assay” (pH 7, PAMPA), the recovery at 5 hr, 10 μM worked out at 56% and the Papp at 5 h, 10 µM is 265 nm/s.

The molecule `COC(=O)c1cc2c(cc1C)/C(=C(/Nc1ccc(C(=O)NCCCN3CCOCC3)cc1)c1ccccc1)C(=O)N2` [Example 29, (Z)-Methyl 5-methyl-3-(((4-((3-morpholinopropyl)carbamoyl)phenyl)amino)(phenyl)methylene)-2-oxoindoline-6-carboxylate] showed a Ki at PDGFRβ [1] of 11.2 nM. Further, in the series with MRC5 cells, the “Cell viability at 100 nM (%)” value is given as 116.9%, the “Cell viability at 300 nM (%)” value was 72.5% and the “Cell viability at 1000 nM (%)” value stood at 60.8%. Also, the IC50 at PDGFRβ [3] (setting [14]) was found to be 3.65 nM. In “PAMPA permeability assay” (pH 7, PAMPA), the recovery at 5 hr, 10 μM stood at 72.1% and the Papp at 5 h, 10 µM came out at 3.73 nm/s.

On to `CNC(=O)CN1CCN(C(=O)c2ccc(N/C(=C3\C(=O)Nc4cc(C(=O)OC)c(C)cc43)c3ccccc3)cc2)CC1` [Example 11, (Z)-Methyl 5-methyl-3-(((4-(4-(2-(methylamino)-2-oxoethyl)piperazine-1-carbonyl)phenyl)amino) (phenyl)methylene)-2-oxoindoline-6-carboxylate], for which the Ki on PDGFRβ [1] stood at 10.6 nM. Moreover, in the series with MRC5 cells, the “Cell viability at 100 nM (%)” value is given as 82%, the “Cell viability at 300 nM (%)” value is listed as 67.8% and the “Cell viability at 1000 nM (%)” value is 28.5%. Further, at PDGFRβ [3] (setting [14]), the half-inhibitory concentration (IC50) was found to be 2.75 nM. Besides, in “PAMPA permeability assay” (pH 7, PAMPA), the recovery at 5 hr, 10 μM was determined as 93.2% and the Papp at 5 h, 10 µM was 0.479 nm/s.

By Ki is commonly meant a dissociation constant, usually derived from enzyme kinetics or from competition with a known ligand. A word on the MRT: it is a mean duration of stay, worked out from the concentration-time curve. The half-life is the time in which the quantity being followed falls by half. Higher therefore signals slow decline. What is called IC50 is the concentration at which inhibition is half-maximal. For orientation: Papp means a coefficient for how fast a substance crosses the barrier. Lower therefore signals slow passage.
